Assay results as given in ChEMBL document CHEMBL3774345, “Synthesis of new diarylamides with pyrimidinyl pyridine scaffold and evaluation of their anti-proliferative effect on cancer cell lines” (Bioorg Med Chem Lett, 2016).

Legend:
Type in all cases: functional
[1] = Cytotoxicity against human RPMI8226 cells assessed as cell growth at 10^-7 M after 24 hrs by SRB assay; conditions: RPMI-8226, 24 h, read-out: Activity
[2] = Cytotoxicity against human OVCAR3 cells assessed as cell growth at 10^-5 M after 24 hrs by SRB assay; conditions: OVCAR-3, 24 h, read-out: Activity
[3] = Cytotoxicity against human DU145 cells assessed as cell growth at 10^-5 M after 24 hrs by SRB assay; conditions: DU-145, 24 h, read-out: Activity
[4] = test system: T47D; experiment: Cytotoxicity against human T47D cells assessed as cell growth at 10^-7 M after 24 hrs by SRB assay; conditions: read-out: Activity
[5] = test system: K562; experiment: Cytotoxicity against human K562 cells assessed as cell growth at 10^-5 M after 24 hrs by SRB assay; conditions: K562, 24 h, read-out: Activity
[6] = Cytotoxicity against human HOP92 cells assessed as cell growth at 10^-6 M after 24 hrs by SRB assay; conditions: HOP-92, 24 h, read-out: Activity
[7] = test system: U-251; experiment: Cytotoxicity against human U251 cells assessed as cell growth at 10^-7 M after 24 hrs by SRB assay; conditions: U-251, 24 h, read-out: Activity
[8] = test system: CCRF-CEM; experiment: Cytotoxicity against human CCRF-CEM cells assessed as cell growth at 10^-8 M after 24 hrs by SRB assay; conditions: read-out: Activity
[9] = Cytotoxicity against human SW620 cells assessed as cell growth at 10^-7 M after 24 hrs by SRB assay; conditions: SW-620, 24 h, read-out: Activity
[10] = test system: MDA-MB-231; experiment: Cytotoxicity against human MDA-MB-231 cells assessed as cell growth at 10^-7 M after 24 hrs by SRB assay; conditions: MDA-MB-231, 24 h, read-out: Activity
[11] = Cytotoxicity against human UO31 cells assessed as cell growth at 10^-7 M after 24 hrs by SRB assay; conditions: UO-31, 24 h, read-out: Activity
[12] = Cytotoxicity against human SF268 cells assessed as cell growth at 10^-7 M after 24 hrs by SRB assay; conditions: SF-268, 24 h, read-out: Activity
[13] = Cytotoxicity against human SKOV3 cells assessed as cell growth at 10^-5 M after 24 hrs by SRB assay; conditions: SK-OV-3, 24 h, read-out: Activity
[14] = Cytotoxicity against human HCC2998 cells assessed as cell growth at 10^-6 M after 24 hrs by SRB assay; conditions: HCC 2998, 24 h, read-out: Activity
[15] = Cytotoxicity against human OVCAR3 cells assessed as cell growth at 10^-6 M after 24 hrs by SRB assay; conditions: OVCAR-3, 24 h, read-out: Activity
[16] = Cytotoxicity against human SW620 cells after 24 hrs by SRB assay; conditions: SW-620, 24 h
[17] = test system: NCI-H226; experiment: Cytotoxicity against human NCI-H226 cells after 24 hrs by SRB assay; conditions: NCI-H226, 24 h
[18] = Cytotoxicity against human HL-60(TB) cells assessed as cell growth at 10^-8 M after 24 hrs by SRB assay; conditions: HL-60, 24 h, read-out: Activity
[19] = Cytotoxicity against human DU145 cells assessed as cell growth at 10^-4 M after 24 hrs by SRB assay; conditions: DU-145, 24 h, read-out: Activity
[20] = test system: MDA-MB-435; experiment: Cytotoxicity against human MDA-MB-435 cells assessed as cell growth at 10^-8 M after 24 hrs by SRB assay; conditions: MDA-MB-435, 24 h, read-out: Activity
[21] = test system: SK-MEL-5; experiment: Cytotoxicity against human SK-MEL-5 cells assessed as cell growth at 10^-6 M after 24 hrs by SRB assay; conditions: SK-MEL-5, 24 h, read-out: Activity
[22] = Cytotoxicity against human NCI-ADR-RES cells assessed as cell growth at 10^-4 M after 24 hrs by SRB assay; conditions: read-out: Activity
[23] = Cytotoxicity against human DU145 cells assessed as cell growth at 10^-6 M after 24 hrs by SRB assay; conditions: DU-145, 24 h, read-out: Activity
[24] = Cytotoxicity against human IGROV1 cells assessed as cell growth at 10^-5 M after 24 hrs by SRB assay; conditions: IGROV-1, 24 h, read-out: Activity
[25] = Cytotoxicity against human UACC62 cells assessed as cell growth at 10^-4 M after 24 hrs by SRB assay; conditions: UACC-62, 24 h, read-out: Activity
[26] = test system: A549; experiment: Cytotoxicity against human A549 cells after 24 hrs by SRB assay; conditions: A549, 24 h
[27] = test system: ACHN; experiment: Cytotoxicity against human ACHN cells assessed as cell growth at 10^-5 M after 24 hrs by SRB assay; conditions: read-out: Activity
[28] = Cytotoxicity against human RXF393 cells assessed as cell growth at 10^-7 M after 24 hrs by SRB assay; conditions: RXF 393, 24 h, read-out: Activity
[29] = test system: NCI-H322M; experiment: Cytotoxicity against human NCI-H322M cells assessed as cell growth at 10^-7 M after 24 hrs by SRB assay; conditions: read-out: Activity
[30] = Cytotoxicity against human Hs 578T cells after 24 hrs by SRB assay
[31] = test system: A498; experiment: Cytotoxicity against human A498 cells assessed as cell growth at 10^-5 M after 24 hrs by SRB assay; conditions: A498, 24 h, read-out: Activity
[32] = test system: NCI-H23; experiment: Cytotoxicity against human NCI-H23 cells after 24 hrs by SRB assay; conditions: NCI-H23, 24 h
[33] = test system: NCI-H226; experiment: Cytotoxicity against human NCI-H226 cells assessed as cell growth at 10^-7 M after 24 hrs by SRB assay; conditions: NCI-H226, 24 h, read-out: Activity
[34] = Cytotoxicity against human HOP92 cells assessed as cell growth at 10^-8 M after 24 hrs by SRB assay; conditions: HOP-92, 24 h, read-out: Activity
[35] = Cytotoxicity against human TK10 cells assessed as cell growth at 10^-4 M after 24 hrs by SRB assay; conditions: TK-10, 24 h, read-out: Activity
[36] = test system: SR; experiment: Cytotoxicity against human SR cells assessed as growth inhibition at 10 uM after 24 hrs by SRB assay; conditions: read-out: GI
[37] = read-out: LC50 (the source's name)
[38] = read-out: pLC50 (the source's name) (converted)

O=C(Nc1cc(-c2cccnc2)nc(NCCCN2CCOCC2)n1)c1cc(Br)cc(C(F)(F)F)c1
growth at 0.1 µM [1]: 104% | growth at 10 µM [2]: 12% | growth at 10 µM [3]: 39% | growth at 0.1 µM [4]: 91% | growth at 10 µM [5]: 4% | growth at 1 µM [6]: 75% | growth at 0.1 µM [7]: 97% | growth at 0.01 µM [8]: 100% | growth at 0.1 µM [9]: 96% | growth at 0.1 µM [10]: 87% | growth at 0.1 µM [11]: 90% | growth at 0.1 µM [12]: 94% | growth at 10 µM [13]: 42% | growth at 1 µM [14]: 92% | growth at 1 µM [15]: 100% | GI50 ([16]; read-out: GI50): 2.25 µM | CC50 [16, 37]: 20.1 µM | TGI ([16]; read-out: TGI): 5.48 µM | GI50 ([16]; read-out: pGI50 (converted)): 2.24 µM | CC50 [16, 38]: 20 µM | TGI ([16]; read-out: pTGI (converted)): 5.62 µM | GI50 ([17]; read-out: GI50): 9.3 µM | CC50 [17, 37]: 52.3 µM | TGI ([17]; read-out: TGI): 22.7 µM | GI50 ([17]; read-out: pGI50 (converted)): 9.33 µM | CC50 [17, 38]: 52.5 µM | TGI ([17]; read-out: pTGI (converted)): 22.9 µM | growth at 0.01 µM [18]: 100% | growth at 100 µM [19]: -100% | growth at 0.01 µM [20]: 96% | growth at 1 µM [21]: 91% | growth at 100 µM [22]: -77% | growth at 1 µM [23]: 101% | growth at 10 µM [24]: 29% | growth at 100 µM [25]: -90% | GI50 ([26]; read-out: GI50): 10.1 µM | CC50 [26, 37]: 48.8 µM | TGI ([26]; read-out: TGI): 22.2 µM | GI50 ([26]; read-out: pGI50 (converted)): 10 µM | CC50 [26, 38]: 49 µM | TGI ([26]; read-out: pTGI (converted)): 22.4 µM | growth at 10 µM [27]: 5% | growth at 0.1 µM [28]: 97% | growth at 0.1 µM [29]: 107% | GI50 ([30]; read-out: GI50): 2.71 µM | CC50 [30, 37]: > 100 µM | TGI ([30]; read-out: TGI): 8.51 µM | GI50 ([30]; read-out: pGI50 (converted)): 2.69 µM | CC50 [30, 38]: 100 µM | TGI ([30]; read-out: pTGI (converted)): 8.51 µM | growth at 10 µM [31]: 13% | GI50 ([32]; read-out: GI50): 3.55 µM | CC50 [32, 37]: 46.1 µM | TGI ([32]; read-out: TGI): 15 µM | GI50 ([32]; read-out: pGI50 (converted)): 3.55 µM | CC50 [32, 38]: 45.7 µM | TGI ([32]; read-out: pTGI (converted)): 15.1 µM | growth at 0.1 µM [33]: 93% | growth at 0.01 µM [34]: 80% | growth at 100 µM [35]: -98%

COc1cc(OC)cc(C(=O)Nc2cc(-c3cccnc3)nc(NCCCN3CCOCC3)n2)c1
inhibition of growth at 10 µM [36]: 42.1%
